Experimental data reported in US8629149B2, “Oxopiperazine derivatives for the treatment of pain and epilepsy” (Zalicus Pharmaceuticals Ltd., priority 2009, dated 2014).

Tests used:
mice = assay: Mouse rotarod assay; assay type: in vivo
Procedure: (§1) To assess a compound's undesirable side effects (toxicity), animals were monitored for overt signs of impaired neurological or muscular function. In mice, the rotarod procedure (Dunham and Miya, J. Am. Pharmacol. Assoc. 46:208-209 (1957)) is used to disclose minimal muscular or neurological impairment (MMI). When a mouse is placed on a rod that rotates at a speed of 6 rpm, the animal can maintain its equilibrium for long periods of time. The animal is considered toxic if it falls off this rotating rod three times during a […].

Mouse rotarod assay = assay type: in vivo; conditions: mouse, in vivo, mice
Procedure: as §1

[1] = Rat Early Pharmacokinetic (EPK) study; assay type: in vivo; conditions: 3 mg/kg PO, PG (propylene glycol)
Procedure: Male Sprague-Dawley rats were dosed via oral (PO) gavage in the detailed formulation. Blood samples were collected from the animals at 6 timepoints out to 4 hours post-dose. Pharmacokinetic analysis was performed on the LC-MS/MS measured concentrations for each timepoint of each compound.

human Nav1.5 channel = target: T1, human Nav1.5 channel (Homo sapiens, UniProt Q14524); assay: Nav1.5 sodium channel screening assay (PatchXpress, cardiac action potential waveform); assay type: cell-based
T1 construct: expressed in transfected cells; host or cells: HEK cells
T1 sequence (Q14524 whole entry): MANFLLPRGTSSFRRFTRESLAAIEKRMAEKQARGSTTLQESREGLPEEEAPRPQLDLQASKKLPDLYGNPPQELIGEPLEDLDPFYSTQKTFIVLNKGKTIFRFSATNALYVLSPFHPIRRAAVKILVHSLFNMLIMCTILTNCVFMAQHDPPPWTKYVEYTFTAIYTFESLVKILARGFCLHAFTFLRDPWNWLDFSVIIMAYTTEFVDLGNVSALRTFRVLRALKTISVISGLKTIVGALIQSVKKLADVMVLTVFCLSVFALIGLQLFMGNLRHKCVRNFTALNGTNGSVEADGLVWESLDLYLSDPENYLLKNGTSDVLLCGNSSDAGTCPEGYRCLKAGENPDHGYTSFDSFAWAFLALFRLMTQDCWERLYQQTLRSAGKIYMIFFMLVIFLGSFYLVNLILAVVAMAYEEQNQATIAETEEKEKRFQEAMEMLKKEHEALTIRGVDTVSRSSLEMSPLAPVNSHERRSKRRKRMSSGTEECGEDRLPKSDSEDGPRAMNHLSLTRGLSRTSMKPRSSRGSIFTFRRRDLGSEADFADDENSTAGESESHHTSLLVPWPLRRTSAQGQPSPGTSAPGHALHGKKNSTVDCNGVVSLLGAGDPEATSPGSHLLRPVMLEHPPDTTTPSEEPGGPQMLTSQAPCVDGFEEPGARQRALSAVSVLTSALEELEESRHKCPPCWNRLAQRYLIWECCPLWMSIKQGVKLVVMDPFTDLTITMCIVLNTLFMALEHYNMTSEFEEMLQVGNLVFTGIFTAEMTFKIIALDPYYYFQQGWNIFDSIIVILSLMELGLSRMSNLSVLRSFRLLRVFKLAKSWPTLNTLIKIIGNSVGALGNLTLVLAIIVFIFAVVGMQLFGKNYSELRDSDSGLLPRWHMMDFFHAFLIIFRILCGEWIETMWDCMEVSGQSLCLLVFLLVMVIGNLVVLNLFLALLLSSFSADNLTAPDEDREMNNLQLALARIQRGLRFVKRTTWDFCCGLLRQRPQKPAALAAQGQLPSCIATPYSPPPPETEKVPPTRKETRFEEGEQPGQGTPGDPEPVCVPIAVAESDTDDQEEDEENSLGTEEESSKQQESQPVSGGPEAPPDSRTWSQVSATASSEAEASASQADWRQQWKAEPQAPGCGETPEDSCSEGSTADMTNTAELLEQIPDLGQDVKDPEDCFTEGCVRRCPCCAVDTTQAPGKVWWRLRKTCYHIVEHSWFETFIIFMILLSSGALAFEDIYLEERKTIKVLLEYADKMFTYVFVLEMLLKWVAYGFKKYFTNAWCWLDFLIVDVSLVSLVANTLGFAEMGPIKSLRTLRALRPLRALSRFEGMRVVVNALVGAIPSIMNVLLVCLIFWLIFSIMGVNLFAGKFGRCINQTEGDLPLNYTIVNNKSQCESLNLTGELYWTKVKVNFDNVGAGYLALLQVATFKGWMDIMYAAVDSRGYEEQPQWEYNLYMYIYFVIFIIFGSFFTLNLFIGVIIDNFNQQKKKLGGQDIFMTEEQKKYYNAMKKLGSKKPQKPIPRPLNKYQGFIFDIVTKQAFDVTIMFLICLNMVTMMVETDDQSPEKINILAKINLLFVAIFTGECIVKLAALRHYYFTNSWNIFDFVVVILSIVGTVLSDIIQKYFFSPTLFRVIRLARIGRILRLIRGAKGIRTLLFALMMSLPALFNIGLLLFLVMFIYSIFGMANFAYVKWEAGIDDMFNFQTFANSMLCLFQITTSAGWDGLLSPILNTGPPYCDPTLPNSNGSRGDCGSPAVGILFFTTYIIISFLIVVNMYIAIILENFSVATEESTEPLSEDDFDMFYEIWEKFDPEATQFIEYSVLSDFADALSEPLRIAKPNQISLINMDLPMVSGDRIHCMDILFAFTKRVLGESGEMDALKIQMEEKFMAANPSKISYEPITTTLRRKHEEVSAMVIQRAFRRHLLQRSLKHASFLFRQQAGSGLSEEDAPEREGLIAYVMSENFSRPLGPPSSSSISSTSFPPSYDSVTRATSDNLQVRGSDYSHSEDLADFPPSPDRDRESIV
Procedure: Inhibition of the TTX-resistant Nav1.5 sodium channel, a key cardiac ion channel, can have profound effects on the duration and amplitude of the cardiac action potential and can result in arrhythmias and other heart malfunctions. To assess the potential cardiac liability of compounds at an early stage in the drug discovery process, a Nav1.5 sodium channel screening assay is performed on Molecular Device's PatchXpress™ automated electrophysiology platform. Under voltage-calmp conditions, Nav1.5 currents are recorded from HEK cells expressing the human Nav1.5 channel in the absence and presence of increasing concentrations of the test compound to obtain an IC50 value. The external recording solution contained (in mM): 90 TEACl, 50 NaCl, 1.8 CaCl, 1 MgCl2, 10 HEPES, 10 glucose, adjusted to pH 7.4 with TEA-OH and to 300 mOsm with sucrose (if necessary), while the internal patch pipette solution contained (in mM): 129 CsF, 2 MgCl2, 11 EGTA, 10 HEPES, 3 Na2ATP adjusted to pH 7.2 with CsOH and to 290 mOsm with sucrose (if necessary). Nav1.5 channel currents were evoked using a cardiac action potential waveform at 1 Hz, digitized at 31.25 kHz and low-pass filtered at 12 kHz.

[2] = target: T2, Cav3.2 T-type Ca2+ channels expressed in HEK cells (Homo sapiens, UniProt O95180); assay: Cav3.2 voltage-clamp electrophysiological assay; assay type: cell-based; conditions: Cav3.2 in HEK cells
T2 construct: expressed in transfected cells; host or cells: HEK cells
T2 sequence (O95180 whole entry): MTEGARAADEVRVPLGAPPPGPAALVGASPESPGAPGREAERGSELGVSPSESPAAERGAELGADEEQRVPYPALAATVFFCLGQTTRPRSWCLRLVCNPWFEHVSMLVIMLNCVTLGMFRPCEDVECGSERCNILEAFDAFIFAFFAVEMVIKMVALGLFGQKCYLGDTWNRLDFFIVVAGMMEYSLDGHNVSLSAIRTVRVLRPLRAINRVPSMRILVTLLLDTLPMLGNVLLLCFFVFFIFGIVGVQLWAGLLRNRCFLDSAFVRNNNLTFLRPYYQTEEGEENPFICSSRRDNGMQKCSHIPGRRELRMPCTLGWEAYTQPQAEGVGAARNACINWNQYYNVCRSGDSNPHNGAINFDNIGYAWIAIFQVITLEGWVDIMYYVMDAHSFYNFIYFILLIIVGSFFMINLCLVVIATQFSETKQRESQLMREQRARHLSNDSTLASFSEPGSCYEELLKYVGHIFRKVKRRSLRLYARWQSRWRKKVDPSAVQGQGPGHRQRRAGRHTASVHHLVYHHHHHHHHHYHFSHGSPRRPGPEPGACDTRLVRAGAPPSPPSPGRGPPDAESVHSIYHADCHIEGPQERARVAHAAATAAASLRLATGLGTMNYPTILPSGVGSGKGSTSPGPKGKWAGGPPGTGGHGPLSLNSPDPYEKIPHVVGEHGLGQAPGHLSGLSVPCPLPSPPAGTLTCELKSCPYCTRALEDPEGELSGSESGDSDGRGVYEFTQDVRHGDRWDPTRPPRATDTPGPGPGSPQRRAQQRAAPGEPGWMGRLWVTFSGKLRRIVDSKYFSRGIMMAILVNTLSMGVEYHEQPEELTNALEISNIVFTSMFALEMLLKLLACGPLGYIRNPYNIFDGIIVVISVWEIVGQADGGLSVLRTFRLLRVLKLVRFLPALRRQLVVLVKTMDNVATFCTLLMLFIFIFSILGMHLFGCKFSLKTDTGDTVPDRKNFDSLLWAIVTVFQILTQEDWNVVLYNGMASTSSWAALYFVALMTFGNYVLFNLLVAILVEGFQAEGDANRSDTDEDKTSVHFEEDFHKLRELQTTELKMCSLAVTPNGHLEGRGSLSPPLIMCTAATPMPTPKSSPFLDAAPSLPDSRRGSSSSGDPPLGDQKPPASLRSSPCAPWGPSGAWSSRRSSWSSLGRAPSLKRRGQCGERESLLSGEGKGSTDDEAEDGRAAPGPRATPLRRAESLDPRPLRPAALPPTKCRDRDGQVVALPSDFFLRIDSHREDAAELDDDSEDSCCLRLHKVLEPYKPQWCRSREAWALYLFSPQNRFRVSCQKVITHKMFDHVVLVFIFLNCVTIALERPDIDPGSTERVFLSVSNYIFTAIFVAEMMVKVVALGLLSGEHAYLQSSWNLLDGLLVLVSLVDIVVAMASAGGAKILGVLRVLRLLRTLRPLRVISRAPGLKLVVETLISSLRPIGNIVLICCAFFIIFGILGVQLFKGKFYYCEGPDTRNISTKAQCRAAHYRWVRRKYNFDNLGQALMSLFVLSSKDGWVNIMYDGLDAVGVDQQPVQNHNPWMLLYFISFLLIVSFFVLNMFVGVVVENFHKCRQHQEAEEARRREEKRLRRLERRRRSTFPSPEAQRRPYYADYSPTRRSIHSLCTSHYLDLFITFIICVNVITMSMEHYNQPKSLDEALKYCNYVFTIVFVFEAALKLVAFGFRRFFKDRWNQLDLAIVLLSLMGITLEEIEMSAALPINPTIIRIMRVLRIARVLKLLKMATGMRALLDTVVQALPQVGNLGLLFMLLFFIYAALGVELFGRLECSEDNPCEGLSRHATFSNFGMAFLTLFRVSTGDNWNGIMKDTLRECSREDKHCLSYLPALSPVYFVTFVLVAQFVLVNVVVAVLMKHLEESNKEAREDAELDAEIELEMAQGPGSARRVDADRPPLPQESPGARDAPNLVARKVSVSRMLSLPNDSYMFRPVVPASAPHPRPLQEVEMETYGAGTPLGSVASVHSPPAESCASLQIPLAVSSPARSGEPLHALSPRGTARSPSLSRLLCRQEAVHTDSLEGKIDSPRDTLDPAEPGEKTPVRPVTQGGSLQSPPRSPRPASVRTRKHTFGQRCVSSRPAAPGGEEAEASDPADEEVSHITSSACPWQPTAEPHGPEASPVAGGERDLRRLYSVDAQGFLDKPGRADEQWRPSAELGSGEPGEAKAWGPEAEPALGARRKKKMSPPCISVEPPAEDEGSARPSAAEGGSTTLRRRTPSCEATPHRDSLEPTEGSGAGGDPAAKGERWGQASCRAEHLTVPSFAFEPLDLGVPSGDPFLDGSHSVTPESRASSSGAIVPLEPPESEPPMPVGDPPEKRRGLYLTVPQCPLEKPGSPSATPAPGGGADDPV
Description: Prior to recording currents from Cav3.2 T-type Ca^2+ channels expressed in HEK cells, the culture media was replaced with extracellular solution (ECS) containing (in mM): 142 CsCl, 10 D-glucose, 2 CaCl2, 1 MgCl2, 10 HEPES, pH adjusted to 7.4 with CsOH. Borosilicate glass patch pipettes, pulled on a P-97 micropipette puller (Sutter Instruments, Novato, Calif.) with typical resistances of 2-4 MW, were backfilled with intracellular solution containing (in mM): 126.5 Cs-methanesulphonate, 2 MgCl2, 10 HEPES, 11 EGTA, 2 Na-ATP, pH adjusted to 7.3 CsOH. […] were recorded in the whole-cell configuration at room temperature (˜21° C.) using an Axopatch 200B (Molecular Devices, Sunnyvale, Calif.) patch-clamp amplifier. Recordings were low-pass filtered at 1 kHz (−3 dB 4-pole Bessel filter), digitized at 2 kHz with a Digidata 1322A interface (Molecular Devices), and acquired using pClamp 9.2 (Molecular Devices). No leak subtraction was used. Test compounds, prepared as 30 mM stock solutions in DMSO and diluted in extracellular buffer, were applied through a gravity driven multi-barrelled array of capillaries (24 gauge) connected to reservoirs controlled by solenoid valves. The effects of compounds on Cav3.2 slow and fast inactivation were evaluated using four different voltage protocols. The voltage dependence of fast and slow channel inactivation was examined using a two pulse protocol. Data were analyzed and fitted using OriginPro v.7.5 (OriginLab, Northampton, Mass.) software.

[3] = voltage-dependence of half inactivation

| Compound | % Impaired (mice; 0.25 hr) [%] | % Impaired (mice; 0.5 hr) [%] | % Impaired (mice; 1 hr) [%] | % Impaired (mice; 2 hr) [%] | % Impaired (mice; 4 hr) [%] | TD50 (Mouse rotarod assay) [mg/kg] | Dose Normalized AUC [1] [nM·h] | Dose Normalized Cmax [1] [nM] | Tmax ([1]; male, Sprague-Dawley, blood) [min] | Inhibition of the cardiac Nav 1.5 channel (statement) (human Nav1.5 channel; HEK cells expressing human Nav1.5) | IC50 (human Nav1.5 channel; cardiac action potential waveform at 1 Hz, read-out: HNAV 1.5 CARDIAC AP 1 Hz IC50) [µM] | τ recovery from slow inactivation [2] [ms] | Fraction of current recovered at 5.1 s interval [2] | τ recovery from fast inactivation (ms) [2] | τ recovery from slow inactivation (ms) [2] | Fraction current remaining at −40 mV ([2]; at −40 mV) | V1/2 fast inactivation (mV) [2, 3] [mV] | V1/2 slow inactivation (mV) [2, 3] [mV] |
| --- | --- | --- | --- | --- | --- | --- | --- | --- | --- | --- | --- | --- | --- | --- | --- | --- | --- | --- |
| O=C1CN(C(=O)CC(c2ccccc2)c2ccccc2)CCN1 [Compound 4, 4-(3,3-diphenylpropanoyl)piperazin-2-one] | 0 | 0 | 0 | 0 | 0 | 370 | 522 | 832 | 15 | did not act as inhibitors | ≥ 300 | 495 | 0.98 | – | – | – | – | – |
| O=C1CN(C(=O)CC(c2ccc(Cl)cc2)c2ccc(Cl)cc2)CCN1 [Compound 3, 4-(3,3-bis(4-chlorophenyl)propanoyl)piperazin-2-one] | 0 | 0 | 0 | 0 | 0 | – | – | – | – | – | – | – | 0.91 | *512 ms | *903 ms | *0.40 | −64 | −78 |
